Reference: ChEMBL document CHEMBL1137564, “Substituted 2-pyrrolinone inhibitors of HIV-1 integrase” (Bioorg Med Chem Lett, 2007)

Columns and labels:
[1] = target: T1, Human immunodeficiency virus type 1 integrase (Human immunodeficiency virus 1, UniProt Q7ZJM1); assay: Inhibition of HIV1 integrase strand transfer activity
[2] = target: T1, Human immunodeficiency virus type 1 integrase; assay: Inhibition of HIV1 integrase 3'-end processing activity
[3] = target: T1, Human immunodeficiency virus type 1 integrase; assay: Inhibition of HIV1 integrase strand transfer activity in presence of Mg2+
[4] = target: T1, Human immunodeficiency virus type 1 integrase; assay: Inhibition of HIV1 integrase 3'-end processing activity in presence of Mg2+
[5] = target: Human immunodeficiency virus type 1 integrase (Human immunodeficiency virus 1) (UniProt Q7ZJM1); assay: Selectivity for HIV1 integrase strand transfer activity over 3'-end processing activity in presence of Mg2+
Human immunodeficiency virus type 1 integrase (Human immunodeficiency virus 1), sequence (Q7ZJM1 as listed by the source): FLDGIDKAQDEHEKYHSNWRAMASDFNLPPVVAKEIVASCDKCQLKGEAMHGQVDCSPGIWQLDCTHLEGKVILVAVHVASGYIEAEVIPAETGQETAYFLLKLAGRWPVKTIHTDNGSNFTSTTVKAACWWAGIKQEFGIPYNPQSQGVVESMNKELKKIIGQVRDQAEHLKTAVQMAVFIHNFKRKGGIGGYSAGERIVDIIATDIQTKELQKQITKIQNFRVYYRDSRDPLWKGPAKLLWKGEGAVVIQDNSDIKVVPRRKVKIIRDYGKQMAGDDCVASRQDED

T1 sequence (Q7ZJM1 whole entry): as the sequence (Q7ZJM1 as listed by the source) above

SMILES	IC50 [1]	IC50 [2]	IC50 [3]	IC50 [4]	Ratio IC50 [5]
COc1ccc(C(=O)C2=C(O)C(=O)N(CCc3ccccc3)C2c2ccc(Br)cc2)cc1OC (stereo unspecified)	42 µM	60 µM			
CCOc1ccc(C(=O)C2=C(O)C(=O)N(c3nccs3)C2c2ccc(O)c(OC)c2)cc1 (stereo unspecified)	30 µM	57 µM			
CC(C)(C)c1ccc(C2C(C(=O)c3ccc(F)cc3)=C(O)C(=O)N2c2nncs2)cc1 (stereo unspecified)	43 µM	64 µM			
Cc1ccc(C(=O)C2=C(O)C(=O)N(c3nccs3)C2c2ccc(F)cc2)cc1 (stereo unspecified)	78 µM	> 100 µM			
COc1ccc(C2C(C(=O)c3ccc(Br)cc3)=C(O)C(=O)N2c2cccc(C(F)(F)F)c2)cc1OC (stereo unspecified)	26 µM	47 µM			
Cc1ccc(C2C(C(=O)c3ccc(Cl)cc3)=C(O)C(=O)N2CC(=O)O)cc1 (stereo unspecified)	69 µM	84 µM			
CCOC(=O)c1sc(N2C(=O)C(O)=C(C(=O)c3ccccc3)C2c2ccc(F)cc2)nc1C (stereo unspecified)	21 µM	44 µM			
COc1ccc(C2C(C(=O)c3ccc(Br)cc3)=C(O)C(=O)N2c2cc(C(C)(C)C)on2)cc1OC (stereo unspecified)	43 µM	45 µM			
Cc1ccc(C(=O)C2=C(O)C(=O)N(c3ncc(S(=O)(=O)c4ccc([N+](=O)[O-])cc4)s3)C2c2cccc(Cl)c2)cc1 (stereo unspecified)	8 µM	27 µM	6.1 µM	> 100 µM	
O=C(C1=C(O)C(=O)N(c2nc3ccccc3s2)C1c1ccccn1)c1ccc(Cl)cc1 (stereo unspecified)	83 µM	> 100 µM			
CCOC(=O)c1sc(N2C(=O)C(O)=C(C(=O)c3ccc(C)cc3)C2c2ccc(F)cc2)nc1C (stereo unspecified)	33 µM	> 100 µM			
Cc1ccc(C(=O)C2=C(O)C(=O)N(c3nccs3)C2c2ccc(Cl)cc2)cc1 (stereo unspecified)	39 µM	56 µM			
CCOc1ccc(C(=O)C2=C(O)C(=O)N(c3nnc(C)s3)C2c2ccc(F)cc2)cc1 (stereo unspecified)	> 100 µM	> 100 µM			
CCOc1ccc(C(=O)C2=C(O)C(=O)N(c3nccs3)C2c2ccc(OC)cc2)cc1 (stereo unspecified)	90 µM	> 100 µM			
COc1ccc(OC)c(C(=O)C2=C(O)C(=O)N(CCCCCC(=O)O)C2c2ccc(Cl)cc2)c1 (stereo unspecified)	40 µM	88 µM	10 µM	> 100 µM	> 10
Cc1ccc(C(=O)C2=C(O)C(=O)N(CCCn3ccnc3)C2c2ccc(Cl)cc2)cc1 (stereo unspecified)	67 µM	93 µM			
O=C(C1=C(O)C(=O)N(c2nc3ccccc3s2)C1c1ccc2c(c1)OCO2)c1ccccc1 (stereo unspecified)	21 µM	57 µM			
O=C(C1=C(O)C(=O)N(c2nc3ccccc3s2)C1c1cccnc1)c1ccc(Cl)cc1 (stereo unspecified)	90 µM	> 100 µM			
